Here are results for 21 molecules from patent US9283222B2 (priority 2006, dated 2016).

The target of this experiment is Recombinant Human Poly(ADP-Ribose) Polymerase (PARP), PARP-1 (Homo sapiens (Human), UniProt P09874). The settings on record: read-out: PARP-1 (Ki); Table 1; text calls the values EC50s.
Recombinant Human Poly(ADP-Ribose) Polymerase (PARP), PARP-1, sequence (P09874 whole entry): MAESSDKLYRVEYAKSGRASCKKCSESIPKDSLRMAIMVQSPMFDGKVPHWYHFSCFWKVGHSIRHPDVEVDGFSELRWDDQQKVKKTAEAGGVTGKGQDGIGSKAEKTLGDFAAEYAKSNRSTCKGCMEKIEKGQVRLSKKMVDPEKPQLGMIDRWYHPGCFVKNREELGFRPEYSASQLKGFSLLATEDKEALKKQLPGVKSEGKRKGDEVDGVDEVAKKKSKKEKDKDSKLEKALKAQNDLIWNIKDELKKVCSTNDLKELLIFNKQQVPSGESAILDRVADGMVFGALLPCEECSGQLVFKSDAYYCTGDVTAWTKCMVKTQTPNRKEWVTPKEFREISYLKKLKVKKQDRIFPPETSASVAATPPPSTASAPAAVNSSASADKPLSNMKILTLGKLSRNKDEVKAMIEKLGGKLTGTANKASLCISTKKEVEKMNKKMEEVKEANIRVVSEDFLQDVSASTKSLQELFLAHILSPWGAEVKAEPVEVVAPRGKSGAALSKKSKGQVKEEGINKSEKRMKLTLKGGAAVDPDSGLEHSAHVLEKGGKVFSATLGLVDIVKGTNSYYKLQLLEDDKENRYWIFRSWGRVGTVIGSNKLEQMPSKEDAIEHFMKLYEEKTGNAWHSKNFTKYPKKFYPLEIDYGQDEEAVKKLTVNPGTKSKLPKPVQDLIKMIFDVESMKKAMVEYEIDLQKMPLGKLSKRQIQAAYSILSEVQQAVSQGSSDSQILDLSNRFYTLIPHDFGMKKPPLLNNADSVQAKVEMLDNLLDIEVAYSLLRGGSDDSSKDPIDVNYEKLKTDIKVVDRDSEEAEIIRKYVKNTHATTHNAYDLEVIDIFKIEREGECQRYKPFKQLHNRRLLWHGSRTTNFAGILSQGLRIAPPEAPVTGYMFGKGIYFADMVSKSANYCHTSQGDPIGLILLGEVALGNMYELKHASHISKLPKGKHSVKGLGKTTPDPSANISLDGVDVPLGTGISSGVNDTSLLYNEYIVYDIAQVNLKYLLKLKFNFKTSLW
On to `O=C(c1cc[nH]n1)N1CCN(C(=O)c2cc(Cc3n[nH]c(=O)c4c3CCCC4)ccc2F)CC1` [Example 678, 4-(4-fluoro-3-{[4-(1H-pyrazol-3-ylcarbonyl)piperazin-1-yl]carbonyl}benzyl)-5,6,7,8-tetrahydrophthalazin-1(2H)-one], for which the Ki came out at 1.1 nM.

As for `O=C(c1cnccn1)N1CCN(C(=O)c2cc(Cc3n[nH]c(=O)c4c3CCCC4)ccc2F)CC1` [Example 679, 4-(4-fluoro-3-{[4-(pyrazin-2-ylcarbonyl)piperazin-1-yl]carbonyl}benzyl)-5,6,7,8-tetrahydrophthalazin-1(2H)-one], the inhibitory constant (Ki) is 1.4 nM.

For `O=C(c1ccc2[nH]cnc2c1)N1CCN(C(=O)c2cc(Cc3n[nH]c(=O)c4c3CCCC4)ccc2F)CC1` [Example 680, 4-(3-{[4-(1H-benzimidazol-5-ylcarbonyl)piperazin-1-yl]carbonyl}-4-fluorobenzyl)-5,6,7,8-tetrahydrophthalazin-1(2H)-one], the Ki is 1.1 nM.

For the molecule `O=C(c1ccncc1)N1CCCN(C(=O)c2cc(Cc3n[nH]c(=O)c4c3NCCC4)ccc2F)CC1` [Example 682, 8-{4-fluoro-3-[(4-isonicotinoyl-1,4-diazepan-1-yl)carbonyl]benzyl}-2,3,4,6-tetrahydropyrido[2,3-d]pyridazin-5(1H)-one], the Ki worked out at 2.4 nM.

As to `O=C(c1cccnc1)N1CCCN(C(=O)c2cc(Cc3n[nH]c(=O)c4c3NCCC4)ccc2F)CC1` [Example 683, 8-(4-fluoro-3-{[4-(pyridin-3-ylcarbonyl)-1,4-diazepan-1-yl]carbonyl}benzyl)-2,3,4,6-tetrahydropyrido[2,3-d]pyridazin-5(1H)-one], the Ki stood at 2.6 nM.

For the molecule `O=C(c1ccccn1)N1CCCN(C(=O)c2cc(Cc3n[nH]c(=O)c4c3NCCC4)ccc2F)CC1` [Example 684, 8-(4-fluoro-3-{[4-(pyridin-2-ylcarbonyl)-1,4-diazepan-1-yl]carbonyl}benzyl)-2,3,4,6-tetrahydropyrido[2,3-d]pyridazin-5(1H)-one], the Ki amounted to 2.8 nM.

For the molecule `O=C(c1cncnc1)N1CCCN(C(=O)c2cc(Cc3n[nH]c(=O)c4c3NCCC4)ccc2F)CC1` [Example 685, 8-(4-fluoro-3-{[4-(pyrimidin-5-ylcarbonyl)-1,4-diazepan-1-yl]carbonyl}benzyl)-2,3,4,6-tetrahydropyrido[2,3-d]pyridazin-5(1H)-one], the Ki came to 2.2 nM.

For `O=C(c1ccc2nc[nH]c2c1)N1CCCN(C(=O)c2cc(Cc3n[nH]c(=O)c4c3NCCC4)ccc2F)CC1` [Example 686, 8-(3-{[4-(1H-benzimidazol-6-ylcarbonyl)-1,4-diazepan-1-yl]carbonyl}-4-fluorobenzyl)-2,3,4,6-tetrahydropyrido[2,3-d]pyridazin-5(1H)-one], the Ki is 1.9 nM.

Turning to `O=C(c1ccc2ccccc2n1)N1CCCN(C(=O)c2cc(Cc3n[nH]c(=O)c4c3NCCC4)ccc2F)CC1` [Example 687, 8-(4-fluoro-3-{[4-(quinolin-2-ylcarbonyl)-1,4-diazepan-1-yl]carbonyl}benzyl)-2,3,4,6-tetrahydropyrido[2,3-d]pyridazin-5(1H)-one], the Ki stood at 4.2 nM.

On to `O=C(c1cnc2ccccc2c1)N1CCCN(C(=O)c2cc(Cc3n[nH]c(=O)c4c3NCCC4)ccc2F)CC1` [Example 688, 8-(4-fluoro-3-{[4-(quinolin-3-ylcarbonyl)-1,4-diazepan-1-yl]carbonyl}benzyl)-2,3,4,6-tetrahydropyrido[2,3-d]pyridazin-5(1H)-one], for which the Ki amounted to 2.4 nM.

For the molecule `Cc1nc2cc(C(=O)N3CCCN(C(=O)c4cc(Cc5n[nH]c(=O)c6c5NCCC6)ccc4F)CC3)ccc2[nH]1` [Example 689, 8-[4-fluoro-3-({4-[(2-methyl-1H-benzimidazol-5-yl)carbonyl]-1,4-diazepan-1-yl}carbonyl)benzyl]-2,3,4,6-tetrahydropyrido[2,3-d]pyridazin-5(1H)-one], the Ki came out at 2.7 nM.

Turning to `CC(C)n1nnc2cc(C(=O)N3CCCN(C(=O)c4cc(Cc5n[nH]c(=O)c6c5NCCC6)ccc4F)CC3)ccc21` [Example 690, 8-[4-fluoro-3-({4-[(1-isopropyl-1H-1,2,3-benzotriazol-5-yl)carbonyl]-1,4-diazepan-1-yl}carbonyl)benzyl]-2,3,4,6-tetrahydropyrido[2,3-d]pyridazin-5(1H)-one], the Ki was found to be 2.4 nM.

On to `O=C(c1ccc(F)cc1)C1CCN(C(=O)c2cc(Cc3n[nH]c(=O)c4c3NCCC4)ccc2F)CC1` [Example 691, 8-(4-fluoro-3-{[4-(4-fluorobenzoyl)piperidin-1-yl]carbonyl}benzyl)-2,3,4,6-tetrahydropyrido[2,3-d]pyridazin-5(1H)-one], for which the inhibition constant Ki was determined as 2.1 nM.

Take `CC1(C)SCNC1C(=O)N1CCN(C(=O)c2cc(Cc3n[nH]c(=O)c4c3NCCC4)ccc2F)CC1` (stereo not drawn) [Example 692, 8-[3-({4-[(5,5-dimethyl-1,3-thiazolidin-4-yl)carbonyl]piperazin-1-yl}carbonyl)-4-fluorobenzyl]-2,3,4,6-tetrahydropyrido[2,3-d]pyridazin-5(1H)-one]: the Ki was found to be 1.6 nM.

Turning to `O=C(c1cnccn1)N1CCCN(C(=O)c2cc(Cc3n[nH]c(=O)c4c3NCCC4)ccc2F)CC1` [Example 693, 8-(4-fluoro-3-{[4-(pyrazin-2-ylcarbonyl)-1,4-diazepan-1-yl]carbonyl}benzyl)-2,3,4,6-tetrahydropyrido[2,3-d]pyridazin-5(1H)-one], the Ki came out at 2 nM.

As to `O=C(c1ccco1)N1CCCN(C(=O)c2cc(Cc3n[nH]c(=O)c4c3NCCC4)ccc2F)CC1` [Example 694, 8-(4-fluoro-3-{[4-(2-furoyl)-1,4-diazepan-1-yl]carbonyl}benzyl)-2,3,4,6-tetrahydropyrido[2,3-d]pyridazin-5(1H)-one], the Ki came to 1.7 nM.

For `O=C(c1cc(Cc2n[nH]c(=O)c3c2NCCC3)ccc1F)N1CCN(c2cncnc2)CC1` [Example 696, 8-{4-fluoro-3-[(4-pyrimidin-5-ylpiperazin-1-yl)carbonyl]benzyl}-2,3,4,6-tetrahydropyrido[2,3-d]pyridazin-5(1H)-one], the Ki worked out at 2.5 nM.

Regarding `CN1CCN(C(=O)c2cc(Cc3n[nH]c(=O)c4c3NCCC4)ccc2F)CC1=O` [Example 697, 8-{4-fluoro-3-[(4-methyl-3-oxopiperazin-1-yl)carbonyl]benzyl}-2,3,4,6-tetrahydropyrido[2,3-d]pyridazin-5(1H)-one], the inhibition constant Ki was 2.2 nM.

Consider `CN(C(=O)c1cc(Cc2n[nH]c(=O)c3c2NCCC3)ccc1F)C1CCN(C(=O)OC(C)(C)C)CC1` [Example 698, tert-butyl 4-[{2-fluoro-5-[(5-oxo-1,2,3,4,5,6-hexahydropyrido[2,3-d]pyridazin-8-yl)methyl]benzoyl}(methyl)amino]piperidine-1-carboxylate], for which the inhibition constant Ki amounted to 11 nM.

For `CC(C)(C)OC(=O)N1CCC(NC(=O)c2cc(Cc3n[nH]c(=O)c4c3NCCC4)ccc2F)CC1` [Example 699, tert-butyl 4-({2-fluoro-5-[(5-oxo-1,2,3,4,5,6-hexahydropyrido[2,3-d]pyridazin-8-yl)methyl]benzoyl}amino)piperidine-1-carboxylate], the Ki turned out to be 74 nM.

In the case of `CC(C)(C)OC(=O)NC1CCN(C(=O)c2cc(Cc3n[nH]c(=O)c4c3NCCC4)ccc2F)CC1` [Example 700, tert-butyl 1-{2-fluoro-5-[(5-oxo-1,2,3,4,5,6-hexahydropyrido[2,3-d]pyridazin-8-yl)methyl]benzoyl}piperidin-4-ylcarbamate], the inhibition constant Ki came to 2.8 nM.

A word on the Ki: it is a measure of affinity in units of concentration, obtained from inhibition or displacement.
